Experimental data reported in US20250262167A1, “COMPOUNDS, TARGETS AND PATHWAYS FOR MACROPHAGE MODULATION” (Massachusetts Institute of Technology, priority 2020, published 2025).

Legend:
[1] = test system: hMDMs; assay: RNA-seq transcriptional response of hMDMs (GSEA, GO enrichment); type: cell-based, human; conditions: for gene expression of TPP modules (#30, #32) / gene expression of typical M1 modules (#7, #8): hMDMs, 24 hrs, GSEA; for macrophage phenotype at transcriptional and translational level: human macrophages
Protocol: Duplicate hMDM samples were treated with 2 M2-activating and 6 M1-activating compounds as well as IL-4 and IFNγ for 24 hrs. Gene expression levels were measured by RNA-seq separately. GSEA preranked analysis was performed based on the whole genome gene list ranked on gene expression changes using a gene set of 49 transcriptional modules in response to 29 stimuli in hMDMs. bosut.: bosutinib; alster.: alsterpaullone; mocet.: mocetinostat; thios.: thiostrepton; niclo.: niclosamide; chlor.: chlorhexidine; fenb.: fenbendazole; fluvo.: fluvoxamine. […] Duplicate hMDM samples were stimulated with each ligand and analyzed by RNA-seq separately.
RNAs were extracted with RNeasy MiniElute kit (Qiagen), converted into cDNA and sequenced using Next-Generation Sequencing (Illumina). […] Differential expression analysis was performed using the program edgeR at P<0.05 with a 2 fold-change. The gene expression level across different samples was normalized and quantified using the function of cpm. Differentially expressed genes were annotated using online functional enrichment analysis tool DAVID (http://david.ncifcrf.gov/). Gene set enrichment analysis were performed with GSEA with FDR q-value<0.05.
Fresh hMDMs were treated with compounds at the EC for 24 hours, followed by RNA-seq.

[2] = test system: subcutaneous B16F10 tumors; assay: B16F10 melanoma model in B6 mice; type: in vivo, mouse; conditions: i.p. 1 mg/kg
[3] = test system: M0 macrophages (hMDMs); assay: Dosage response of cell shape change on M0 macrophages; type: cell-based, human; conditions: M0 macrophages; for EC: EC = concentration inducing cell morphology changes to reach the M1 or M2 Z-score cutoff, Michaelis-Menten fit, 3 independent experiments, unit of the source corrected; for Max absolute Z-value: Max Z-score from Michaelis-Menten equation, negative = round, positive = elongated
[4] = test system: mouse bone marrow macrophages (BMMs); assay: Development and function of TAM/M2-like macrophages in vitro (qPCR, flow cytometry); type: cell-based; conditions: mouse BMMs, induced by IL4/IL13, 24 hours
Protocol: DEGs were identified by edgeR at P<0.05 with at least 2 fold-change. Data for genes that were not classified as differentially expressed are plotted in black. […] Mouse BMMs were cultured in normal medium with or without 2.5 μM thiostrepton for 24 hrs (group 1), or cultured in B16F10 tumor cell conditioned medium (CM) with or without 2.5 μM thiostrepton for 24 hrs (group 2), or cultured with B16F10 tumor cell CM for 24 hrs first and then treated with 2.5 μM thiostrepton for another 24 hrs (group 3). The transcript levels of the indicated genes were quantified by qPCR. Data were summarized from two independent experiments. […] Mouse BMMs were treated with thiostrepton for 24 hrs. Untreated and treated macrophages were co-cultured with equal number of B16F10 melanoma cells for 12 hrs. The number of tumor cells were quantified by flow cytometry after subtracting macrophages from total number of cells. Data were summarized from three independent experiments. ** P<0.01 by T-test.
Expression of MHCII, CD80, iNOS, Arg1 and CD206 were quantified by flow cytometry. Shown are representative staining profiles of treated (red) and untreated (dark) TAMs from two independent experiments. […] Alternatively, mouse BMMs were polarized with IL-4/IL-13 (group 3) or lactic acid (group 5) for 24 hrs first and then either not treated or treated with […] thiostrepton for another 24 hrs. The transcript levels of the indicated genes were quantified by qPCR. Data are summarized from two independent experiments.
Mouse BMMs were not treated or treated with […] thiostrepton for 24 hours in normal medium (group 1) or in the presence of IL4/IL13 (group 2), or mouse BMMs were polarized with IL4/IL13 for 24 hours and then either not treated or treated with […] thiostrepton for 24 hours (group 3). RNA was isolated and the transcript levels of the indicated genes were quantified by PCR. Data, shown as mean±s.d., were summarized from two independent experiments. * P<0.05 and ** P<0.01 by T-test. […] Data are shown as mean±s.e.m. FIGS. 19C-19D show flow cytometry analysis of TAM (F4/80^+CD11b^+Ly6C^−Ly6G^−), inflammatory monocytes (F4/80′^intCD11b^+Ly6C^+Ly6G^−) and monocytes (F4/80^−CD11b^+Ly6C^+Ly6G^+) in the tumors of mice treated with DMSO, TA99, cucurbitacin I, and cucurbitacin I plus TA99 18 days after tumor engraftment. Shown are representative F4/80 versus CD11b staining profiles gating on CD45+ cells and MHCII histograms gating on macrophages from c.
Mouse bone marrow-derived macrophages (mBMM) were prepared as described previously^54. Briefly, fresh bone marrow cells were isolated from B6 mice. Cells were plated into 6-well plate with 1×10^6/mL in complete RPMI with 2-mercaptoethanol and cultured for 6 days with fresh medium change every 2 days. mBMMs were differentiated to resemble TAMs in the presence of 10 ng/mL mIL-4 and mIL-13 (Peprotech) or 25 mM lactate acid for 24 hrs or tumor conditioned medium (CM). To prepare CM, 70% confluent B16F10 cultured were replaced with fresh medium and the tumor medium was collected and filtered ([…]) 24 hrs later. The mixture of 3 volumes of tumor medium with 1 volume of complete RPMI for mBMM serves as the CM. Expression of Arg, Fizz1 and Vegfa were quantified by qPCR to assess the development of TAMs. Other genes of Tnf, Il1b, Nos2, Cxcl2, Ccl5, Ym1 and Tgfb serve as macrophage activating markers. To assay the tumor growth inhibition, mBMMs (10,000 cells per well in 96 well plate) were treated with thiostrepton for 24 hrs and then cocultured with equal number of B16 melanoma cells in fresh complete RPMI for 12 hrs. The conditioned medium treated or not treated with thiostrepton were collected and filtered. The numbers of B16 melanoma cells were cultured for 12 hrs with conditioned medium or conditioned medium heated at 95° C. for 5 min. Tumor cells were quantified by flow cytometry to determine the macrophage-dependent killing function. […]

[5] = test system: hMDMs differentiated into M2 by IL-4 plus IL-13; assay: Reprogramming screen and dosage response on M2-like differentiated macrophages; conditions: for EC: M1-activating compounds on M2-like macrophages (IL-4 plus IL-13), EC = concentration reaching Z-score cutoff; for Category: differentiated macrophages; for EC (M1 Z-score cutoff): Homo sapiens, Macrophage, 24 h, read-out: EC;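 for all read-outs here: human monocyte-derived macrophages held 24 h in 5 ng/mL IL-4 plus IL-13 before 24 h compound exposure, with cell shape measured from images in 384-well plates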
[6] = test system: human monocyte-derived macrophages (hMDMs); assay: High throughput phenotypic screen of macrophage activation (cell shape, Z-score); type: cell-based; parameters: key to Average Z-value: Z-score vs DMSO; negative = round cells, positive = elongated; conditions: for activation state induced in the screen: compounds regulating actin-cytoskeleton;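 for all read-outs here: phalloidin and DAPI stained hMDMs imaged by high-content microscopy, cell eccentricity compared with DMSO control by T-test, round morphology scored negative, elongated positive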
[7] = test system: hMDMs differentiated into M1 by IFNγ plus TNFα; assay: Reprogramming screen and dosage response on M1-like differentiated macrophages; type: cell-based, human; conditions: for EC (M2 Z-score cutoff): M2-activating compounds on M1-like macrophages (IFNγ plus TNFα), EC = concentration reaching Z-score cutoff; for Category: differentiated macrophages
Protocol: Data were summarized from 3 independent experiments.
Human macrophages were seeded into optical 384-well plates. Sixteen hours later, medium in M1 plates were replaced by M1 differentiating medium (complete RPMI with 50 ng/mL IFNγ and 50 ng/mL TNFα) and medium in M2 plates by M2 differentiating medium (complete RPMI with 5 ng/mL IL-4 and 5 ng/mL IL-13). After 24 hrs cell differentiation, M1 plates (M1 macrophages) and M2 plates (M2 macrophages) were treated with M2-activating compounds and M1-activating compounds respectively for 24 hrs. Two independent experiments were performed with or without replacing differentiating medium right before treatment. Cell imaging and analysis were performed as indicated above.
To investigate whether the identified compounds could reprogram or reactivate macrophages after M1- or M2-like differentiation, we rescreened the hits on M1- or M2-activated macrophages. hMDMs were activated into M2-like macrophages by IL-4 plus IL-13 or M1-like macrophages by IFNγ plus TNFα. […] 24 hours later, cell images were taken and cell shapes were quantified.
We also rescreened the hits on differentiated macrophages in the presence of differentiating cytokines: either IL-4 plus IL-13 or IFNγ plus TNFα.

Q: With NCCc1c[nH]c2ccc(O)cc12 [5HT, serotonin] as the molecule, how does the “gene expression of TPP modules (#30, #32)” value (from here on “gene expression … (#30, #32)”) [1] read?
A: down-regulated

Q: What about the “gene expression of typical M1 modules (#7, #8)” value (“gene expression … (#7, #8)” for short) [1] of the same molecule?
A: up-regulated

Q: Which B16F10 growth [2] does the source give for CC(C)(O)/C=C/C(=O)[C@](C)(O)[C@H]1[C@H](O)C[C@@]2(C)[C@@H]3CC=C4[C@@H](C=C(O)C(=O)C4(C)C)[C@]3(C)C(=O)C[C@]12C [Cucurbitacin I] here?
A: inhibited

Q: What about the Category [3] of the same molecule?
A: M1 (−4 for M1-activated macrophages)

Q: What about the EC [3] of the same molecule?
A: 0.342 µM

Q: What about the “Max absolute Z-value” [3] of the same molecule?
A: −4.808

Q: What about the “development and function of tumor-associated macrophages in vitro” value [4] of the same molecule?
A: inhibits

Q: What about the EC [5] of the same molecule?
A: 1.759 µM

Q: And the Category [5]?
A: M1 (−4 for M1-activated macrophages)

Q: COC(=O)Nc1nc2ccc(Sc3ccccc3)cc2[nH]1 [Fenbendazole] was tested. Which “macrophage phenotype at transcriptional and translational level” value [1] did it give?
A: activated macrophages toward M1-like phenotype

Q: And the “activation state induced in the screen” value [6]?
A: M1-activating

Q: And the EC (M1 Z-score cutoff) [5]?
A: 0.649 µM

Q: For O=C(c1ccc(/C=C/c2n[nH]c3ccccc23)cc1)N1CCNCC1 [KW 2449], which EC (M2 Z-score cutoff) ([7]; Homo sapiens, Macrophage, 24 h) is on record?
A: 2.16 µM

Q: What does the source list for CN1c2cc3c(cc2N=C(c2ccc(C(=O)O)cc2)c2ccccc21)C(C)(C)CCC3(C)C [LE135]?
A: Category [3]: M1 (−4 for M1-activated macrophages); EC [3]: 0.419 µM; Max absolute Z-value [3]: −8.912

Q: With COCCNCc1ccc(-c2cc3nccc(Oc4ccc(NC(=S)NC(=O)Cc5ccc(F)cc5)cc4F)c3s2)nc1 [MGCD-265] as the molecule, how does the EC (M2 Z-score cutoff) ([7]; Homo sapiens, Macrophage, 24 h) read?
A: 0.911 µM

Q: With CC(C)C[C@H](NC(=O)CNC(=O)c1cc(Cl)ccc1Cl)B(O)O [MLN2238] as the molecule, how does the “Average Z-value” ([6]; cell shape Z-score of hMDMs averaged over the compounds listed for the Wiki pathway, compounds at 20 µM for 24 hours, positive values = M2-like) read?
A: 7.13

Q: What about the EC (M2 Z-score cutoff) ([7]; Homo sapiens, Macrophage, 24 h) of the same molecule?
A: 3.46 µM

Q: Which Category [3] does the source give for O=C(Nc1nc2ccc(NC(=O)C34CC5CC(CC(C5)C3)C4)cc2s1)c1ccccc1 [NVP 231] here?
A: M1 (−4 for M1-activated macrophages)

Q: What about the EC [3] of the same molecule?
A: 2.25 µM

Q: What about the “Max absolute Z-value” [3] of the same molecule?
A: −22.37

Q: And the “Average Z-value” ([6]; cell shape Z-score of hMDMs treated with compound at 20 µM for 24 hours, averaged over the compounds listed for the WikiPathways pathway, negative = M1-like, positive = M2-like)?
A: −4.79

Q: And the EC [5]?
A: 5.745 µM

Q: And the Category [5]?
A: M1 (−4 for M1-activated macrophages)

Q: Which EC (M2 Z-score cutoff) ([7]; Homo sapiens, Macrophage, 24 h) does the source give for Cc1c(C(=O)Nc2ccc(N3C[C@@H](C)O[C@@H](C)C3)nc2)cccc1-c1ccc(OC(F)(F)F)cc1 [NVP-LDE225] here?
A: 2.77 µM

Q: For c1ccc2c(Oc3nc(Nc4ccc(N5CCOCC5)cc4)c4ncn(C5CCCCC5)c4n3)cccc2c1 [Purmorphamine], which EC (M2 Z-score cutoff) ([7]; Homo sapiens, Macrophage, 24 h) is on record?
A: 2.35 µM

Q: What does the source list for OC[C@H](Cc1ccccc1)Nc1nc(Oc2ccc3c(c2)CCC3)nc2c1ncn2Cc1ccc(-c2ccccc2)cc1 [QS 11]?
A: EC (M2 Z-score cutoff) [7]: 0.2611 µM; Category [7]: M2 (6 for M2-activated macrophages)

Q: Which EC (M2 Z-score cutoff) ([7]; Homo sapiens, Macrophage, 24 h) does the source give for CNC(=O)c1cc(Oc2ccc(NC(=O)Nc3ccc(Cl)c(C(F)(F)F)c3)c(F)c2)ccn1 [Regorafenib] here?
A: 2.88 µM

Q: Which EC (M2 Z-score cutoff) ([7]; Homo sapiens, Macrophage, 24 h) does the source give for CO[C@H]1C[C@H](O[C@@H]2/C(C)=C/C[C@@H]3C[C@@H](C[C@]4(CC[C@H](C)[C@@H](C5CCCCC5)O4)O3)OC(=O)[C@@H]3C=C(C)/C(=N/O)[C@H]4OC/C(=C\C=C\[C@@H]2C)[C@]43O)O[C@@H](C)[C@@H]1O [SELAMECTIN] here?
A: 15 µM

Q: CNC(=O)c1cc(Oc2ccc(NC(=O)Nc3ccc(Cl)c(C(F)(F)F)c3)cc2)ccn1 [Sorafenib] was tested. Which EC (M2 Z-score cutoff) ([7]; Homo sapiens, Macrophage, 24 h) did it give?
A: 0.794 µM

Q: CC(=O)O[C@H]1C(=O)[C@@]2(C)[C@H]([C@H](OC(=O)c3ccccc3)[C@]3(O)C[C@H](OC(=O)[C@H](O)[C@@H](NC(=O)c4ccccc4)c4ccccc4)C(C)=C1C3(C)C)[C@]1(OC(C)=O)CO[C@@H]1C[C@@H]2O [Taxol] was tested. Which “macrophage phenotype at transcriptional and translational level” value [1] did it give?
A: activated macrophages toward M1-like phenotype

Q: What about the “activation state induced in the screen” value [6] of the same molecule?
A: M1-activating

Q: What about the EC (M1 Z-score cutoff) [5] of the same molecule?
A: 0.129 µM

Q: Which “gene expression … (#30, #32)” value [1] does the source give for NCCc1ccc(O)c(O)c1 [dopamine] here?
A: up-regulated

Q: What about the “gene expression … (#7, #8)” value [1] of the same molecule?
A: down-regulated

Q: CC[C@H](C)C(=O)O[C@H]1C[C@@H](C)C=C2C=C[C@H](C)[C@H](CC[C@@H]3C[C@@H](O)CC(=O)O3)[C@H]21 [lovastatin] was tested. Which EC (M2 Z-score cutoff) ([7]; Homo sapiens, Macrophage, 24 h) did it give?
A: 0.442 µM

Q: How did the EC (M2 Z-score cutoff) ([7]; Homo sapiens, Macrophage, 24 h) turn out when CC(C)[C@]12O[C@H]1[C@@H]1O[C@]13[C@]1(O[C@H]1C[C@H]1C4=C(CC[C@@]13C)C(=O)OC4)[C@@H]2O [triptolide] was run?
A: 0.0619 µM

Q: Which results are given for JTE 013?
A: EC (M2 Z-score cutoff) [7]: 0.9381 µM; Category [7]: M2 (6 for M2-activated macrophages)

Q: Which “gene expression … (#30, #32)” value [1] does the source give for VEGF here?
A: down-regulated

Q: What about the “gene expression … (#7, #8)” value [1] of the same molecule?
A: up-regulated

Q: Which “gene expression … (#30, #32)” value [1] does the source give for leptin: ligand of novel pathway here?
A: down-regulated

Q: What about the “gene expression … (#7, #8)” value [1] of the same molecule?
A: up-regulated
